In patent US20190330224A1, “ACC INHIBITORS AND USES THEREOF” (Gilead Apollo, LLC, priority 2015, published 2019):
≈ marks a conversion by molar mass, not a printed value. Read-outs that look alike come from different tables or passages of the source.

What was measured:
[1] = target: Fungal ACC2 (UniProt Q00955); conditions: read-out: Fungal ACC2 (IC50, in vitro ACC2 inhibition)
[2] = target: Human ACC2 (Homo sapiens, UniProt O00763); test: In vitro ACC2 inhibition assay (ADP-Glo), human ACC2; assay type: biochemical; conditions: 5 nM ACC2, 20 μM ATP, 20 μM acetyl-CoA
Chain of Human ACC2 (O00763 whole entry): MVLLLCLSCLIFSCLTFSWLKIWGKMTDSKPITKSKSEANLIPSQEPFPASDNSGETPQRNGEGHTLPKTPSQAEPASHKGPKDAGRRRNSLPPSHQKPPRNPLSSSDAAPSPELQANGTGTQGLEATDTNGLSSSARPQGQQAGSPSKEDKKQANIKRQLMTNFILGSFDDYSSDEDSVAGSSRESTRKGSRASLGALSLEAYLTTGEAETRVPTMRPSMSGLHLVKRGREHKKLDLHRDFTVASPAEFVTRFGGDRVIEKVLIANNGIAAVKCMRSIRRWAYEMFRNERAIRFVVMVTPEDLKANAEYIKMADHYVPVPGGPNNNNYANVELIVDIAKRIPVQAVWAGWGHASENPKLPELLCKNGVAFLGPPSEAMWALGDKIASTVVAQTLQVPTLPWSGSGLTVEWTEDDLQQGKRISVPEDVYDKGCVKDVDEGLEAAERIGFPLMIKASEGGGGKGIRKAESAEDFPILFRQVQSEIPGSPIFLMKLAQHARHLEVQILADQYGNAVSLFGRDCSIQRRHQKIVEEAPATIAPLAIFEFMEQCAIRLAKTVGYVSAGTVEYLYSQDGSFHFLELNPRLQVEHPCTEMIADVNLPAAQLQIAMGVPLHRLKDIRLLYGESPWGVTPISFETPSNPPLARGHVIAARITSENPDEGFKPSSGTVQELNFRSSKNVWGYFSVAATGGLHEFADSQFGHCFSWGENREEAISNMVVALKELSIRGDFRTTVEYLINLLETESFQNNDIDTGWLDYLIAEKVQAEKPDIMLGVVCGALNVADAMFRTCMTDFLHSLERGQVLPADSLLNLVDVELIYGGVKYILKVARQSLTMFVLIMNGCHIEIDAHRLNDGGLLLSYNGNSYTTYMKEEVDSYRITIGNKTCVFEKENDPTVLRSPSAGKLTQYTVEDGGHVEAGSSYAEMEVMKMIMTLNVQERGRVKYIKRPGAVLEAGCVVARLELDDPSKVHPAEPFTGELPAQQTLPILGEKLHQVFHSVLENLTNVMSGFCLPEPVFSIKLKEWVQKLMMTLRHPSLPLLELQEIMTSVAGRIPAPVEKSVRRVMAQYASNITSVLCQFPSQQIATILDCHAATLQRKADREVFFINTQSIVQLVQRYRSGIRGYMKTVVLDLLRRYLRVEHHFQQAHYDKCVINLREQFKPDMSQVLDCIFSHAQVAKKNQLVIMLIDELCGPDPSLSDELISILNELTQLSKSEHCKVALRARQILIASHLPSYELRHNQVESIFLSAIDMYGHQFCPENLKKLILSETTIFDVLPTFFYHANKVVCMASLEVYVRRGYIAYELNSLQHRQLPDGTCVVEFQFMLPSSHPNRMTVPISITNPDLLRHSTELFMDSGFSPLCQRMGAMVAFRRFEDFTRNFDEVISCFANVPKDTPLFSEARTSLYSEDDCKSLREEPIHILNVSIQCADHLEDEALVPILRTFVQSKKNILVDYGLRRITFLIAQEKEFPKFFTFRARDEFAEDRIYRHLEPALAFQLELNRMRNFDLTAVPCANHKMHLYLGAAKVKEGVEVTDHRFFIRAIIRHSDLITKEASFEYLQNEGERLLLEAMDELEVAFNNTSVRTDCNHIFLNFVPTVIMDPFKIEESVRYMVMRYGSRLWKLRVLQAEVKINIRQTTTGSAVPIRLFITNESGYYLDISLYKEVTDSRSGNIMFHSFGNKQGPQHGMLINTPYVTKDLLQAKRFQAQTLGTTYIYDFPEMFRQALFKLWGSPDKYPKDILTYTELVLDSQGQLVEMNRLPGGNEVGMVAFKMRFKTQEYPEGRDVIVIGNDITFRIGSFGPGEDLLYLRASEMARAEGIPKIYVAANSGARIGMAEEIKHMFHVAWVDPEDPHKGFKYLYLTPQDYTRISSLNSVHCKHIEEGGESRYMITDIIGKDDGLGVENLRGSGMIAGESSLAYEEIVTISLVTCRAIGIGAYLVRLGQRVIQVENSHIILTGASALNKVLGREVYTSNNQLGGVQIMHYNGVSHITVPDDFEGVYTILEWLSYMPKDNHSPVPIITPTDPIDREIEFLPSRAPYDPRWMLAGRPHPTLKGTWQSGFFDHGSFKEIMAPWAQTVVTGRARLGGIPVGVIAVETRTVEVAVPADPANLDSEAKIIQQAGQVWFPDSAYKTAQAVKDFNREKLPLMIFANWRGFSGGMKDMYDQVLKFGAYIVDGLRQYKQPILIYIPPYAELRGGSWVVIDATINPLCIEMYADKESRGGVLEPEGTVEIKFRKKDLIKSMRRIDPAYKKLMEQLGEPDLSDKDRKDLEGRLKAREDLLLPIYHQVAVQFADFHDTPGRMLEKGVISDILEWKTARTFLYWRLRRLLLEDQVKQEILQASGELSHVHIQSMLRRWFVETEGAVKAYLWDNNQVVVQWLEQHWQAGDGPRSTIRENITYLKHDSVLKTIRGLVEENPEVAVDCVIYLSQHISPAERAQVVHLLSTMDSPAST

[3] = test system: C. parapsilosis ATCC 22019; test: Anti-Fungal Activity Assay (broth microtiter MIC), C. parapsilosis; assay type: cell-based, Candida parapsilosis; conditions: for MIC: Lodderomyces parapsilosis, ATCC22019, 48 h, read-out: MIC C. parapsilosis ATCC 22019
Procedure: (§1) Compounds of the present invention were evaluated in an Anti-Fungal Activity Assay. An exemplary procedure for the assay, which measures the susceptibility of various Candida species to anti-fungal compounds, follows. Compounds to be tested (including fluconazole and amphotericin B) were dissolved in DMSO to obtain a solution having a concentration of 1 mg/mL. […] All species were grown from frozen stock by directly plating on to freshly prepared Sabouraud Dextrose agar (BD, Difco) and incubated overnight in ambient air at 35° C. for 24 h. A direct suspension was prepared in RPMI 1640+MOPS (Lonza, Biowhittaker) by taking individual colonies from the overnight cultures using sterile swabs soaked in sterile saline. The concentration of the suspension was determined using pre-determined standard curves. […] Broth microtiter MIC challenge plates were prepared following CLSI guidelines (M27-A3, Vol. 28 No. 14). The original CLSI guidelines focused on reading Candida MICs after 48 h of incubation. As reading after only 24 h offers a clear advantage of patient care, QC limits are being established for all drugs at 24 h. That being said there are no known interpretive breakpoints for amphotericin B at 24 h and the current fluconazole interpretive breakpoints are based on a 48 h reading. The MIC breakpoints for the test compounds were recorded at 48 h, and for the soraphen the 24 h time-point was added. All MIC determinations were achieved by visually comparing the growth found in the antibiotic challenged wells to that of the growth control.

[4] = test system: C. albicans ATCC 90028; test: Anti-Fungal Activity Assay (broth microtiter MIC), C. albicans; assay type: cell-based, Candida albicans; conditions: for MIC: Candida albicans, ATCC90028, 48 h, read-out: MIC C. albicans ATCC 90028
Procedure: as §1

[5] = test system: C. krusei ATCC 6258; test: Anti-Fungal Activity Assay (broth microtiter MIC), C. krusei; assay type: cell-based, Candida krusei; conditions: for MIC: Pichia kudriavzevii, ATCC6258, 48 h, read-out: MIC C. krusei ATCC 6258
Procedure: as §1

[6] = 3 replicates, MIC recorded at 48 h

Chain of Fungal ACC2 (Q00955 whole entry): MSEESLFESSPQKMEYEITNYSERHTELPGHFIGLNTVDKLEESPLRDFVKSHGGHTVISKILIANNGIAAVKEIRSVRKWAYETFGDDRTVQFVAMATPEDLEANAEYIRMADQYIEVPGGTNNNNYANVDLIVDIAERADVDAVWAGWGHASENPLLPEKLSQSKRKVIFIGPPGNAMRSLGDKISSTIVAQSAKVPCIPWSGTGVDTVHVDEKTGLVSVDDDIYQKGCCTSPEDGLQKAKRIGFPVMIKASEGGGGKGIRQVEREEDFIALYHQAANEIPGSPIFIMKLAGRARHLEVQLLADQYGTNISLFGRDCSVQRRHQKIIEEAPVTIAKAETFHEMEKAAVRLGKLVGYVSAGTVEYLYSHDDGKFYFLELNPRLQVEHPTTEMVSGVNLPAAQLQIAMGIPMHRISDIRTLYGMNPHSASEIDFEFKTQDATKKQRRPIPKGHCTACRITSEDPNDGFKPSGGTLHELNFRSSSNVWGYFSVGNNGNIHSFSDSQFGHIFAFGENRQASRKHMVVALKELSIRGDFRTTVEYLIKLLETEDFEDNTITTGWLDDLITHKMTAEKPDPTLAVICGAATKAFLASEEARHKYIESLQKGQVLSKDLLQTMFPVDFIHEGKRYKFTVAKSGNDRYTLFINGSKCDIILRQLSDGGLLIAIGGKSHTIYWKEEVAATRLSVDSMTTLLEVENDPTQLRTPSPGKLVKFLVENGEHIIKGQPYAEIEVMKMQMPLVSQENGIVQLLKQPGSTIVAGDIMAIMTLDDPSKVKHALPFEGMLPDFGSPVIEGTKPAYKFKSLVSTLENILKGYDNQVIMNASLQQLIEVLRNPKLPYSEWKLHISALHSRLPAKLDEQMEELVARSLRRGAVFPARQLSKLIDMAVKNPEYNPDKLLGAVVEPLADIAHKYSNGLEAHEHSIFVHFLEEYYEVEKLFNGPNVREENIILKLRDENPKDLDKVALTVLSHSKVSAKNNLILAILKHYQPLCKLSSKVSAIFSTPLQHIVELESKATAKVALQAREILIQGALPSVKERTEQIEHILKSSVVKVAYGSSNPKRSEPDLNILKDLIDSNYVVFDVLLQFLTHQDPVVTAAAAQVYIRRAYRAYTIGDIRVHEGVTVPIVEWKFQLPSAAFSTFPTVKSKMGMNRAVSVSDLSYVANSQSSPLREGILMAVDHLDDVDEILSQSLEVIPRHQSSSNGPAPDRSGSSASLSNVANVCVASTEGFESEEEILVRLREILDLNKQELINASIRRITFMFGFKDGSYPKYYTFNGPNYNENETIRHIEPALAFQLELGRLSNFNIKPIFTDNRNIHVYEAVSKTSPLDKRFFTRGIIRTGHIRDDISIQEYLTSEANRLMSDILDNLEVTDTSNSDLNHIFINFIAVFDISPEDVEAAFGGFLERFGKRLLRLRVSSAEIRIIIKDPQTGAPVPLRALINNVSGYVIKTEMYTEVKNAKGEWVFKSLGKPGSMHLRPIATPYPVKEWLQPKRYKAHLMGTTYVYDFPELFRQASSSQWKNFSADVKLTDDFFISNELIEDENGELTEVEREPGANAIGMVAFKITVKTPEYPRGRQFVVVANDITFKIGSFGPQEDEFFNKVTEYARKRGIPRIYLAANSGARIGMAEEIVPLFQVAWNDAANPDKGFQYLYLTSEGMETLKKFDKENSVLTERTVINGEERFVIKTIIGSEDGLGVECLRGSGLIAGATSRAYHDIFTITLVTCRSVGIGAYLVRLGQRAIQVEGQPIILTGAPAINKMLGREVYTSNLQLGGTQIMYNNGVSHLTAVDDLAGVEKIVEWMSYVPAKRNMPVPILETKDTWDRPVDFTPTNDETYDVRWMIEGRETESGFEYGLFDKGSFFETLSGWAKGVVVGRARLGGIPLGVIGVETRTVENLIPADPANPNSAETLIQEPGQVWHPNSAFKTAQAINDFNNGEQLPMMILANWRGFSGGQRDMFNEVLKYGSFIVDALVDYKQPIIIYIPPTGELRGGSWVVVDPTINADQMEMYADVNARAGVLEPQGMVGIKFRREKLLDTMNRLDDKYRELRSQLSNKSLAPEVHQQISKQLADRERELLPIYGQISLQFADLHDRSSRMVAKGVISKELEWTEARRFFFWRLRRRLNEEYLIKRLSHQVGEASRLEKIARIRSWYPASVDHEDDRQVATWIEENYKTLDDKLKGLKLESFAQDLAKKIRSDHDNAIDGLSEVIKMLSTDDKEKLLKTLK

| SMILES | IC50 [2] [nM] | MIC [3, 6] [µg/mL] | MIC [4, 6] [µg/mL] | MIC [5, 6] [µg/mL] | further results |
| --- | --- | --- | --- | --- | --- |
| COCCO[C@@H](Cn1c(=O)n(C2CCCN(C)C2=O)c(=O)c2c(C)c(-n3nccn3)sc21)c1cc(F)ccc1OC (stereo partly drawn) [Compound I-14, 1-((R)-2-(5-fluoro-2-methoxyphenyl)-2-(2-methoxy-ethoxy)ethyl)-5-methyl-3-(1-methyl-2-oxopiperidin-3-yl)-6-(2H-1,2,3-triazol-2-yl)thieno[2,3-d]pyrimidine-2,4(1H,3H)-dione] | 10 to 100 | – | – | – | IC50 [1]: 2 to 10 nM |
| COc1ccc(F)cc1[C@H](Cn1c(=O)n(C2CCNC2=O)c(=O)c2c(C)c(-c3ncco3)sc21)OC1CCOCC1 (stereo partly drawn) [Compound I-58, 1-((R)-2-(5-fluoro-2-methoxyphenyl)-2-((tetrahydro-2H-pyran-4-yl)oxy)ethyl)-5-methyl-6-(oxazol-2-yl)-3-(2-oxopyrrolidin-3-yl)thieno[2,3-d]pyrimidine-2,4(1H,3H)-dione] | 2 to 10 | 2.1 to 4 (≈ 3.59 to 6.84 µM) | 2.1 to 4 (≈ 3.59 to 6.84 µM) | 2.1 to 4 (≈ 3.59 to 6.84 µM) | – |
| COc1ccc(F)cc1[C@H](Cn1c(=O)n(C2CCN(C)C2=O)c(=O)c2c(C)c(-c3ncco3)sc21)OC1CCOCC1 (stereo partly drawn) [Compound I-59, 1-((R)-2-(5-fluoro-2-methoxyphenyl)-2-((tetrahydro-2H-pyran-4-yl)oxy)ethyl)-5-methyl-3-(1-methyl-2-oxopyrrolidin-3-yl)-6-(oxazol-2-yl)thieno[2,3-d]pyrimidine-2,4(1H,3H)-dione] | 2 to 10 | 2.1 to 4 (≈ 3.51 to 6.68 µM) | 1.1 to 2 (≈ 1.84 to 3.34 µM) | 0.25 to 1 (≈ 0.418 to 1.67 µM) | – |
| COc1ccccc1[C@H](Cn1c(=O)n([C@H]2CCCNC2=O)c(=O)c2c(C)c(-c3ncco3)sc21)OCCO [Compound I-60, 1-((R)-2-(2-hydroxyethoxy)-2-(2-methoxyphenyl)ethyl)-5-methyl-6-(oxazol-2-yl)-3-((S)-2-oxopiperidin-3-yl)thieno[2,3-d]pyrimidine-2,4(1H,3H)-dione] | 10 to 100 | – | – | – | IC50 [1]: 0.7 to 2 nM |
| COc1ccc(F)cc1[C@H](Cn1c(=O)n([C@H]2CCCNC2=O)c(=O)c2c(C)c(-c3ncco3)sc21)OCCO [Compound I-62, 1-((R)-2-(5-fluoro-2-methoxyphenyl)-2-(2-hydroxy-ethoxy)ethyl)-5-methyl-6-(oxazol-2-yl)-3-((S)-2-oxopiperidin-3-yl)thieno[2,3-d]pyrimidine-2,4(1H,3H)-dione] | 10 to 100 | 2.1 to 4 (≈ 3.76 to 7.16 µM) | 2.1 to 4 (≈ 3.76 to 7.16 µM) | 2.1 to 4 (≈ 3.76 to 7.16 µM) | – |
| COc1ccc(F)cc1[C@H](Cn1c(=O)n([C@H]2CCCN(C)C2=O)c(=O)c2c(C)c(-c3ncco3)sc21)OCCO [Compound I-63, 1-((R)-2-(5-fluoro-2-methoxyphenyl)-2-(2-hydroxy-ethoxy)ethyl)-5-methyl-3-((S)-1-methyl-2-oxopiperidin-3-yl)-6-(oxazol-2-yl)thieno[2,3-d]pyrimidine-2,4(1H,3H)-dione] | 10 to 100 | 2.1 to 4 (≈ 3.67 to 6.99 µM) | 2.1 to 4 (≈ 3.67 to 6.99 µM) | 2.1 to 4 (≈ 3.67 to 6.99 µM) | – |
| COc1ccc(F)cc1[C@H](Cn1c(=O)n([C@@H]2CCCNC2=O)c(=O)c2c(C)c(-c3ncco3)sc21)OCCO [Compound I-64, 1-((R)-2-(5-fluoro-2-methoxyphenyl)-2-(2-hydroxy-ethoxy)ethyl)-5-methyl-6-(oxazol-2-yl)-3-((R)-2-oxopiperidin-3-yl)thieno[2,3-d]pyrimidine-2,4(1H,3H)-dione] | 10 to 100 | 2.1 to 4 (≈ 3.76 to 7.16 µM) | 2.1 to 4 (≈ 3.76 to 7.16 µM) | 2.1 to 4 (≈ 3.76 to 7.16 µM) | – |
| COc1ccc(F)cc1[C@H](Cn1c(=O)n([C@@H]2CCCN(C)C2=O)c(=O)c2c(C)c(-c3ncco3)sc21)OCCO [Compound I-65, 1-((R)-2-(5-fluoro-2-methoxyphenyl)-2-(2-hydroxy-ethoxy)ethyl)-5-methyl-3-((R)-1-methyl-2-oxopiperidin-3-yl)-6-(oxazol-2-yl)thieno[2,3-d]pyrimidine-2,4(1H,3H)-dione] | 10 to 100 | 2.1 to 4 (≈ 3.67 to 6.99 µM) | 2.1 to 4 (≈ 3.67 to 6.99 µM) | 2.1 to 4 (≈ 3.67 to 6.99 µM) | – |
| COc1ccc(F)cc1[C@H](Cn1c(=O)n([C@]2(C)CCC(=O)NC2)c(=O)c2c(C)c(-n3nccn3)sc21)OCCO [Compound I-133, 1-((R)-2-(5-fluoro-2-methoxyphenyl)-2-(2-hydroxy-ethoxy)ethyl)-5-methyl-3-((R)-3-methyl-6-oxopiperidin-3-yl)-6-(2H-1,2,3-triazol-2-yl)thieno[2,3-d]pyrimidine-2,4(1H,3H)-dione] | 10 to 100 | 2.1 to 4 (≈ 3.67 to 6.99 µM) | 2.1 to 4 (≈ 3.67 to 6.99 µM) | 2.1 to 4 (≈ 3.67 to 6.99 µM) | – |
| COc1ccc(F)cc1[C@H](Cn1c(=O)n([C@@]2(C)CCC(=O)NC2)c(=O)c2c(C)c(-n3nccn3)sc21)OCCO [Compound I-135, 1-((R)-2-(5-fluoro-2-methoxyphenyl)-2-(2-hydroxy-ethoxy)ethyl)-5-methyl-3-((S)-3-methyl-6-oxopiperidin-3-yl)-6-(2H-1,2,3-triazol-2-yl)thieno[2,3-d]pyrimidine-2,4(1H,3H)-dione] | 10 to 100 | 2.1 to 4 (≈ 3.67 to 6.99 µM) | 2.1 to 4 (≈ 3.67 to 6.99 µM) | 2.1 to 4 (≈ 3.67 to 6.99 µM) | – |
| COc1ccc(F)cc1[C@H](Cn1c(=O)n([C@@H]2CCN(C(C)C)C2=O)c(=O)c2c(C)c(-n3nccn3)sc21)OC1CCOCC1 [Compound I-139, 1-((R)-2-(5-fluoro-2-methoxyphenyl)-2-((tetrahydro-2H-pyran-4-yl)oxy)ethyl)-3-((R)-1-isopropyl-2-oxopyrrolidin-3-yl)-5-methyl-6-(2H-1,2,3-triazol-2-yl)thieno[2,3-d]pyrimidine-2,4(1H,3H)-dione] | 2 to 10 | – | – | – | MIC C. parapsilosis ATCC 22019 [3, 6]: B (provided an MIC of 1.1-2.0 μg/mL); MIC C. albicans ATCC 90028 [4, 6]: C (provided an MIC of 2.1-4.0 μg/mL); MIC C. krusei ATCC 6258 [5, 6]: B (provided an MIC of 1.1-2.0 μg/mL) |
| COCCO[C@@H](Cn1c(=O)n([C@]2(C)CCNC2=O)c(=O)c2c(C)c(-n3nccn3)sc21)c1cc(F)ccc1OC [Compound I-140, 1-((R)-2-(5-fluoro-2-methoxyphenyl)-2-(2-methoxy-ethoxy)ethyl)-5-methyl-3-((R)-3-methyl-2-oxopyrrolidin-3-yl)-6-(2H-1,2,3-triazol-2-yl)thieno[2,3-d]pyrimidine-2,4(1H,3H)-dione] | > 1000 | – | – | – | IC50 [1]: > 1000 nM |
| COCCO[C@@H](Cn1c(=O)n([C@@]2(C)CCNC2=O)c(=O)c2c(C)c(-n3nccn3)sc21)c1cc(F)ccc1OC [Compound I-141, 1-((R)-2-(5-fluoro-2-methoxyphenyl)-2-(2-methoxyethoxy)ethyl)-5-methyl-3-((S)-3-methyl-2-oxopyrrolidin-3-yl)-6-(2H-1,2,3-triazol-2-yl)thieno[2,3-d]pyrimidine-2,4(1H,3H)-dione] | > 1000 | – | – | – | IC50 [1]: > 1000 nM |
| CCN1CC[C@H](n2c(=O)c3c(C)c(-n4nccn4)sc3n(C[C@H](OC3CCOCC3)c3cc(F)ccc3OC)c2=O)C1=O [Compound I-150, 3-((S)-1-ethyl-2-oxopyrrolidin-3-yl)-1-((R)-2-(5-fluoro-2-methoxyphenyl)-2-((tetrahydro-2H-pyran-4-yl)oxy)ethyl)-5-methyl-6-(2H-1,2,3-triazol-2-yl)thieno[2,3-d]pyrimidine-2,4(1H,3H)-dione] | 2 to 10 | 0.25 to 1 (≈ 0.408 to 1.63 µM) | 0.25 to 1 (≈ 0.408 to 1.63 µM) | 0.075 to 0.24 (≈ 0.122 to 0.392 µM) | – |
| CCN1CC[C@@H](n2c(=O)c3c(C)c(-n4nccn4)sc3n(C[C@H](OC3CCOCC3)c3cc(F)ccc3OC)c2=O)C1=O [Compound I-151] | 2 to 10 | 0.25 to 1 (≈ 0.408 to 1.63 µM) | 0.25 to 1 (≈ 0.408 to 1.63 µM) | 0.075 to 0.24 (≈ 0.122 to 0.392 µM) | – |
| COCCO[C@@H](Cn1c(=O)n([C@@H]2CCN(C)C2=O)c(=O)c2c(C)c(-n3nccn3)sc21)c1cc(F)ccc1OCC#N [Compound I-159, 2-(4-fluoro-2-((R)-1-(2-methoxyethoxy)-2-(5-methyl-3-((R)-1-methyl-2-oxopyrrolidin-3-yl)-2,4-dioxo-6-(2H2H-1,2,3-triazol-2-yl)-3,4-dihydrothieno[2,3-d]pyrimidin-1 (2H)-yl)ethyl)phenoxy)acetonitrile] | > 1000 | – | – | – | MIC [3]: 2.1 to 4 µg/mL (≈ 3.51 to 6.69 µM); MIC [4]: 2.1 to 4 µg/mL (≈ 3.51 to 6.69 µM); MIC [5]: 2.1 to 4 µg/mL (≈ 3.51 to 6.69 µM) |
| COCCO[C@@H](Cn1c(=O)n([C@H]2CCN(C)C2=O)c(=O)c2c(C)c(-n3nccn3)sc21)c1cc(F)ccc1OCC#N [Compound I-160, 2-(4-fluoro-2-((R)-1-(2-methoxyethoxy)-2-(5-methyl-3-((S)-1-methyl-2-oxopyrrolidin-3-yl)-2,4-dioxo-6-(2H-1,2,3-triazol-2-yl)-3,4-dihydrothieno[2,3-d]pyrimidin-1(2H)-yl)ethyl)phenoxy)acetonitrile] | 10 to 100 | – | – | – | MIC [3]: 2.1 to 4 µg/mL (≈ 3.51 to 6.69 µM); MIC [4]: 2.1 to 4 µg/mL (≈ 3.51 to 6.69 µM); MIC [5]: 2.1 to 4 µg/mL (≈ 3.51 to 6.69 µM) |
